Data: patent US8058243B2, “Method for treating a brain cancer with ifenprodil” (HSC Research and Development Limited Partnership, priority 2006, dated 2011)
Where a name gives a salt, the structure may show the parent alone. Read-outs that look alike come from different tables or passages of the source.

System: murine neural precursor cells (neurosphere cultures)
Assay: HTS of LOPAC library against secondary neurosphere cultures, MTT proliferation assay at 3 μM, day 7 (z score, P value)
Format: cell-based, mouse
[1] = LOPAC screen, neurosphere MTT proliferation, 3 μM, day 7
[2] = yes/no: significantly inhibited neurosphere proliferation (P<0.01) in primary screen
[3] = LOPAC library screen, 3 μM, MTT, secondary neurosphere cultures, day 7
[4] = LOPAC primary screen, neurosphere MTT proliferation, 3 μM, day 7
[5] = primary LOPAC screen, 3 μM, MTT, neurosphere proliferation
[6] = yes/no: significantly inhibited neurosphere proliferation in the primary screen
[7] = yes = significantly inhibited neurosphere proliferation (P<0.01) in the primary screen
[8] = yes/no: significantly inhibited neurosphere proliferation in primary screen
[9] = LOPAC library screen, 3 μM, MTT, neurosphere cultures
[10] = LOPAC library screen at 3 μM, MTT, secondary neurosphere cultures, screened in singlets
[11] = yes/no: significantly inhibited neurosphere proliferation (P<0.01) in the primary screen
[12] = LOPAC library screen at 3 μM, secondary neurosphere cultures, MTT

SMILES: C[C@H](Cc1ccc2c(c1)OC(C(=O)[O-])(C(=O)[O-])O2)NC[C@H](O)c1cccc(Cl)c1.[Na+].[Na+] [CL 316,243]
- Z score [1]: 0.621
- Activity [2]: no

SMILES: C[C@H](Cc1ccc2c(c1)OC(C(=O)[O-])(C(=O)[O-])O2)NC[C@H](O)c1cccc(Cl)c1.[Na+].[Na+] [CL 316, 243]
- Z Score: 0.6212

SMILES: N#Cc1cc2nc([O-])c([O-])nc2cc1[N+](=O)[O-].[Na+].[Na+] [CNQX disodium]
- Z Score [3]: −1.904
- Z score [1]: −1.904
- Activity [2]: no

SMILES: CCc1cccc(N(C)C(N)=Nc2cccc3ccccc23)c1 [CNS-1102]
- Activity: yes
- Z Score [3]: −3.782
- Z score [4]: −3.782

SMILES: CCCCCCC(C)(C)c1ccc([C@@H]2C[C@H](O)CC[C@H]2CCCO)c(O)c1 [CP55940]
- Z Score: 1.396
- Z score [5]: 1.396
- Activity [6]: no

SMILES: CC1(C)CCC(NC(=O)[C@@H](N)CCC(=O)O)CC1 [CR 2249]
- Z Score (168 h, 3 µM): −1.002
- Z score (168 h, 3 µM): −1.002
- Activity [7]: no

SMILES: Cc1cc(C)c(NC(=O)C[C@H](CC(=O)O)c2cccc3ccccc23)c(C(=O)N2CCC3(CCCC3)CC2)c1 [CR 2945]
- Z Score (168 h, 3 µM): 0.5451
- Z score (168 h, 3 µM): 0.545
- Activity [2]: no

SMILES: CCCCCCCCCCCCCCCCCCNC(=O)OCC(COP(=O)([O-])OCC[n+]1ccsc1)OC (stereo not shown) [CV-3988]
- Z Score: −0.4371
- Z score [4]: −0.437
- Activity [8]: no

SMILES: O=C(c1ccc2c(c1)OCCO2)N1CCCCC1 [CX 546]
- Z Score: −1.05
- Z score [1]: −1.050
- Activity [2]: no

SMILES: O=C(O)/C=C/c1ccc(O)c(O)c1 [Caffeic Acid]
- Z Score [9]: 0.3199
- Z score [1]: 0.320
- Activity [2]: no

SMILES: O=C(/C=C/c1ccc(O)c(O)c1)OCCc1ccccc1 [Caffeic acid phenethyl ester]
- Z Score (168 h, 3 µM): 1.306
- Z score (168 h, 3 µM): 1.306
- Activity [2]: no

SMILES: Cn1c(=O)c2c(ncn2C)n(C)c1=O [Caffeine]
- Z Score [9]: 0.4113
- Z score [1]: 0.411

SMILES: CNc1ccc2oc(C[C@H]3O[C@@]4(CC[C@H]3C)O[C@H]([C@H](C)C(=O)c3ccc[nH]3)[C@H](C)C[C@H]4C)nc2c1C(=O)O [Calcimycin]
- Z Score: 2.172
- Z score [1]: 2.172
- Activity [2]: no

SMILES: Clc1ccc(C(c2ccc(Cl)cc2)n2cc[n+](CC(OCc3ccc(Cl)cc3Cl)c3ccc(Cl)cc3Cl)c2)cc1 (stereo not shown) [Calmidazolium chloride]
- Z Score (168 h, 3 µM): −8.582
- Z score (168 h, 3 µM): −8.582
- Activity [7]: yes

SMILES: CC1(C(=O)O)C2CCC(O2)C1(C)C(=O)O (stereo not shown) [Cantharidic Acid]
- Z Score: −0.5529
- Z score [1]: −0.553
- Activity [2]: no

SMILES: C[C@@]12C(=O)OC(=O)[C@]1(C)[C@H]1CC[C@@H]2O1 [Cantharidin]
- Z Score: −0.5781
- Z score [1]: −0.578
- Activity [2]: no

SMILES: Oc1cc2c(cc1O)CN(C(=S)NCCc1ccc(Cl)cc1)CCC2 [Capsazepine]
- Z Score [9]: 1.26
- Z score [1]: 1.260
- Activity [2]: no

SMILES: C[C@H](CS)C(=O)N1CCC[C@H]1C(=O)O [Captopril]
- Z Score [3]: −1.285
- Z score [1]: −1.285
- Activity [2]: no

SMILES: C[N+](C)(C)CCOC(N)=O [Carbachol]
- Z Score [9]: −0.03381
- Z score [1]: −0.034
- Activity [2]: no

SMILES: NC(=O)N1c2ccccc2C=Cc2ccccc21 [Carbamazepine]
- Z Score [9]: 1.114
- Z score [1]: 1.114
- Activity [2]: no

SMILES: NCCC(=O)NCCc1c[nH]cn1 [Carcinine dihydrochloride]
- Z Score (168 h, 3 µM): −1.023
- Z score (168 h, 3 µM): −1.023
- Activity [6]: no

SMILES: CCCC(C)(COC(N)=O)COC(=O)NC(C)C (stereo not shown) [Carisoprodol]
- Z Score: −1.795
- Z score [1]: −1.795
- Activity [2]: no

SMILES: O=NN(CCCl)C(=O)NCCCl [Carmustine]
- Z Score [10]: 2.191
- Z score [1]: 2.191
- Activity [2]: no

SMILES: N[C@@H](C(=O)N[C@@H]1C(=O)N2C(C(=O)O)=C(Cl)CS[C@H]12)c1ccccc1 [Cefaclor]
- Z Score [3]: −3.009
- Z score [4]: −3.009
- Activity [11]: yes

SMILES: Cc1nnc(SCC2=C(C(=O)O)N3C(=O)[C@@H](NC(=O)Cn4cnnn4)[C@H]3SC2)s1 [Cefazolin sodium]
- Z Score [3]: −2.58
- Z score [4]: −2.580
- Activity [11]: yes

SMILES: CO[C@@]1(NC(=O)CSCC#N)C(=O)N2C(C(=O)O)=C(CSc3nnnn3C)CS[C@@H]21 [Cefmetazole sodium]
- Z Score [10]: 2.503
- Z score [1]: 2.503
- Activity [2]: no

SMILES: CO/N=C(\C(=O)N[C@@H]1C(=O)N2C(C(=O)O)=C(COC(C)=O)CS[C@H]12)c1csc(N)n1 [Cefotaxime sodium]
- Z Score [12]: −1.096
- Z score [4]: −1.096
- Activity [11]: no

SMILES: NC(=O)c1cc[n+](CC2=C(C(=O)O)N3C(=O)[C@@H](NC(=O)[C@@H](c4ccccc4)S(=O)(=O)[O-])[C@H]3SC2)cc1 [Cefsulodin sodium salt hydrate]
- Z Score [3]: −2.277
- Z score [4]: −2.277
- Activity [11]: no

SMILES: CO/N=C(\C(=O)N[C@@H]1C(=O)N2C(C(=O)O)=C(CSc3nc(=O)c(=O)[nH]n3C)CS[C@H]12)c1csc(N)n1 [Ceftriaxone sodium]
- Activity: no
- Z Score [10]: 2.23
- Z score [4]: 2.230

SMILES: CN(C)CCOC(=O)COc1ccc(Cl)cc1 [Centrophenoxine hydrochloride]
- Z Score: −0.3302
- Z score [1]: −0.330
- Activity [2]: no

SMILES: CC1=C(C(=O)O)N2C(=O)[C@@H](NC(=O)[C@H](N)c3ccccc3)[C@H]2SC1 [Cephalexin hydrate]
- Z Score [3]: −3.966
- Z score [4]: −3.966
- Activity [11]: yes

SMILES: CC(=O)OCC1=C(C(=O)[O-])N2C(=O)[C@@H](NC(=O)CCC[C@@H](N)C(=O)[O-])[C@H]2SC1.[Zn+2] [Cephalosporin C zinc salt]
- Z Score: −3.309
- Z score [4]: −3.309
- Activity [11]: yes

SMILES: CC(=O)OCC1=C(C(=O)O)N2C(=O)[C@@H](NC(=O)Cc3cccs3)[C@H]2SC1 [Cephalothin sodium]
- Z Score [10]: 2.264
- Z score [4]: 2.264
- Activity [11]: no

SMILES: CC(=O)OCC1=C(C(=O)O)N2C(=O)[C@@H](NC(=O)CSc3ccncc3)[C@H]2SC1 [Cephapirin sodium]
- Z Score [9]: 0.6219
- Z score [4]: 0.622
- Activity [11]: no

SMILES: CC1=C(C(=O)O)N2C(=O)[C@@H](NC(=O)[C@H](N)C3=CCC=CC3)[C@H]2SC1 [Cephradine]
- Z Score [9]: 0.7112
- Z score [4]: 0.711
- Activity [11]: no

SMILES: COc1ccc2c(c[n+](C)c3c4cc5c(cc4ccc23)OCO5)c1OC [Chelerythrine (36), Chelerythrine, reference compound]
- Z Score [3]: −10.67
- Z score [4]: −10.671
- Activity [11]: yes

SMILES: O=C(O)c1cc(O)cc(C(=O)O)n1 [Chelidamic acid]
- Z Score (168 h, 3 µM): 0.7261
- Z score (168 h, 3 µM): 0.726
- Activity [2]: no

SMILES: O=C(O)CCCc1ccc(N(CCCl)CCCl)cc1 [Chlorambucil]
- Z Score: 0.08078
- Z score [4]: 0.081
- Activity [11]: no

SMILES: CN1C(=O)CCS(=O)(=O)C1c1ccc(Cl)cc1 (stereo not shown) [Chlormezanone]
- Z Score: −0.9465
- Z score [1]: −0.947
- Activity [2]: no

SMILES: CNC(=O)[C@H]1O[C@@H](n2cnc3c(NCc4cccc(I)c4)nc(Cl)nc32)[C@H](O)[C@@H]1O [Chloro-IB-MECA]
- Z Score [12]: −0.8471
- Z score [1]: −0.847
- Activity [2]: no

SMILES: NS(=O)(=O)c1cc2c(cc1Cl)N=CNS2(=O)=O [Chlorothiazide]
- Z Score [3]: −3.165
- Z score [4]: −3.165
- Activity [7]: yes

SMILES: CN(C)CCCN1c2ccccc2Sc2ccc(Cl)cc21 [Chlorpromazine hydrochloride]
- Z Score [9]: 0.7506
- Z score [4]: 0.751
- Activity [11]: no

SMILES: CCCNC(=O)NS(=O)(=O)c1ccc(Cl)cc1 [Chlorpropamide]
- Z Score [12]: −0.1901
- Z score [5]: −0.190
- Activity [6]: no

SMILES: CN(C)CC/C=C1/c2ccccc2Sc2ccc(Cl)cc21 [Chlorprothixene hydrochloride]
- Z Score (168 h, 3 µM): −5.008
- Z score (168 h, 3 µM): −5.008
- Activity [11]: yes

SMILES: C[N+](C)(C)CCO.[Br-] [Choline bromide]
- Activity: no
- Z Score: −0.73
- Z score: −0.730

SMILES: CN(C(=O)CCCOc1ccc2[nH]c(=O)ccc2c1)C1CCCCC1 [Cilostamide]
- Z Score [9]: 0.1756
- Z score [1]: 0.176
- Activity [2]: no

SMILES: O=C1CCc2cc(OCCCCc3nnnn3C3CCCCC3)ccc2N1 [Cilostazol]
- Z Score [9]: 0.8219
- Z score [1]: 0.822
- Activity [2]: no

SMILES: CN/C(=N/CCSCc1nc[nH]c1C)NC#N [Cimetidine]
- Z Score [10]: 1.665
- Z score [1]: 1.665
- Activity [2]: no

SMILES: C(=C\c1ccccc1)/CN1CCN(C(c2ccccc2)c2ccccc2)CC1 [Cinnarizine]
- Z Score [3]: −1.375
- Z score [1]: −1.375

SMILES: CCn1nc(C(=O)O)c(=O)c2cc3c(cc21)OCO3 [Cinoxacin]
- Z Score [12]: −1.095
- Z score [1]: −1.095
- Activity [2]: no

SMILES: CC(C)(Oc1ccc(C2CC2(Cl)Cl)cc1)C(=O)O (stereo not shown) [Ciprofibrate]
- Z Score [3]: −1.326
- Z score [1]: −1.326
- Activity [2]: no

SMILES: c1ccc(C2CC2)c(OCC2=NCCN2)c1 [Cirazoline hydrochloride]
- Z Score [9]: 0.4239
- Z score [1]: 0.424
- Activity [2]: no

SMILES: N.N.[Cl][Pt][Cl] [Cisplatin]
- Z Score [10]: 1.523
- Z score [4]: 1.523
- Activity [8]: no
